From patent publication US7074789B2, “Kinase inhibitors” (Amgen Inc., priority 1999, dated 2006) come the findings set out here.

What all share (format): biochemical
The target in one experiment is T1, Fyn (Homo sapiens, UniProt P06241).
T1 construct: Kinases are expressed as either kinase domains or full length constructs; made in house
The experiment can be described thus: Kinase inhibition assay (33P transfer), Fyn. Conditions: read-out: Fyn-1. In short, it runs like this:
(§1)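 IC50: inhibitor concentration lowering 33P incorporation into immobilised substrate by 50%. Label transferred from ATP to poly(Glu,Tyr) 4:1 or poly(Arg,Ser) 3:1 is measured after a 0.5% phosphoric acid wash by liquid scintillation.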

The next experiment addresses T2, Zap-70 (Homo sapiens, UniProt P43403).
T2 construct: Kinases are expressed as either kinase domains or full length constructs; made in house
T2 sequence (P43403 1-619): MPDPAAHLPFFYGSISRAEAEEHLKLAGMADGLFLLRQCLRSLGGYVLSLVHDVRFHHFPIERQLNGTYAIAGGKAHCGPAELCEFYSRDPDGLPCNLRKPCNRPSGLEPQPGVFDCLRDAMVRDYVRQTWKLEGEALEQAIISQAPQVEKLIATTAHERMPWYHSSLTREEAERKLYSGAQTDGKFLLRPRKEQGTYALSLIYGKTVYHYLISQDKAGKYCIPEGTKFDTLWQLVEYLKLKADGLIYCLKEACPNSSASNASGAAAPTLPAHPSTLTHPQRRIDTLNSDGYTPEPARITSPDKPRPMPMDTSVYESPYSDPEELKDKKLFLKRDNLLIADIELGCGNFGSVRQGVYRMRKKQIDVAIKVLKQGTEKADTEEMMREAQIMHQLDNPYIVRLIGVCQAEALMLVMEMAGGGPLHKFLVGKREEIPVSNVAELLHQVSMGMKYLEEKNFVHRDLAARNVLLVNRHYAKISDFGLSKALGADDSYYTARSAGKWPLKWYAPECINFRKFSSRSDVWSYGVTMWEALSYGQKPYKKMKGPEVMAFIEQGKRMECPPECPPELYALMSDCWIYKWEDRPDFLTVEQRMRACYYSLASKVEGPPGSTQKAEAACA
The experiment can be described thus: Kinase inhibition assay (33P transfer), Zap-70. Particulars: Table 3; read-out: Zap-1. In short, it runs like this: (§2)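 Kinase domain or full-length constructs, GST- or polyHis-tagged, expressed in E. coli or baculovirus-High Five cells, sometimes with regulatory polypeptides. Activity measured as 33PO4 transfer from ATP to plate-bound poly(Glu,Tyr) 4:1 or poly(Arg,Ser) 3:1; after incubation, plates washed with 0.5% phosphoric acid and counted by liquid scintillation.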

The next experiment deals with T3, Flt-1 (Homo sapiens, UniProt P17948).
T3 construct: Kinases are expressed as either kinase domains or full length constructs; made in house
T3 sequence (P17948 27-1338, species assumed): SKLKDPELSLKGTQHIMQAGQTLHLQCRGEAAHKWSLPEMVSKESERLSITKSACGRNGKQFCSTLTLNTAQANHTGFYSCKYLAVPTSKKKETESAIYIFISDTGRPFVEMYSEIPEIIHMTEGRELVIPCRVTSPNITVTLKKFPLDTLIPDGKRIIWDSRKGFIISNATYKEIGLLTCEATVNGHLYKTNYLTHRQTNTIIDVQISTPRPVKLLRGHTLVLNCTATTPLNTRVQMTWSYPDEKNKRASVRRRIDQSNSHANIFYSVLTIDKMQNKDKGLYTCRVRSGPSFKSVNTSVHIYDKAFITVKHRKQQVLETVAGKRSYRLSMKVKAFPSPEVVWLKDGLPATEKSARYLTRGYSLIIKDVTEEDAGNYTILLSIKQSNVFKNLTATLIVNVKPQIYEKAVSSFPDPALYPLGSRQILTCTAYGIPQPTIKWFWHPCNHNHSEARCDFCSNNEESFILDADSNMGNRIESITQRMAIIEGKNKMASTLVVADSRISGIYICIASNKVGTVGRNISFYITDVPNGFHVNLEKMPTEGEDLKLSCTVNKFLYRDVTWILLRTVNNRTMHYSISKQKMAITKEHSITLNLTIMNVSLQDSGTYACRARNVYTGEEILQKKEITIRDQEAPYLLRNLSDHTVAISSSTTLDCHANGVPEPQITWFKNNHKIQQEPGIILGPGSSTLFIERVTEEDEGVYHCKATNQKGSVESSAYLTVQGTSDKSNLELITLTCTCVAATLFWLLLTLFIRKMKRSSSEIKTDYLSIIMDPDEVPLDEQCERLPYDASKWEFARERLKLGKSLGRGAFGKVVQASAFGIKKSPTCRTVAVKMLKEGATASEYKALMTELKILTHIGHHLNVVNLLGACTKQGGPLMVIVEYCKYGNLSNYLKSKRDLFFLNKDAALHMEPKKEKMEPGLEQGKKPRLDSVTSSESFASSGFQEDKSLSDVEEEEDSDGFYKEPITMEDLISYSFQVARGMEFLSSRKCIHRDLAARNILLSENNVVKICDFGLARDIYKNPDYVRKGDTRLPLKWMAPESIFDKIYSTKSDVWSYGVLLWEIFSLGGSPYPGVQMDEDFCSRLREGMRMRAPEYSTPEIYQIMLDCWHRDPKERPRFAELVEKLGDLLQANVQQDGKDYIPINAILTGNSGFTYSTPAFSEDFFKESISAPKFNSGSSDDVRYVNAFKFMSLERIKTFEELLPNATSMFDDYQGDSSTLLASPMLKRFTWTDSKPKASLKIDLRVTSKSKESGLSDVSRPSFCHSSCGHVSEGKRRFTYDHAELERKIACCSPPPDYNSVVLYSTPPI
As to the kind of experiment: Kinase inhibition assay (33P transfer), Flt-1. In short, it runs like this: as §1

For the next experiment, the target named is T4, AKT (Homo sapiens, UniProt Q9Y243).
T4 construct: Kinases are expressed as either kinase domains or full length constructs; made in house
T4 sequence (Q9Y243 whole entry, the tested form may be a part): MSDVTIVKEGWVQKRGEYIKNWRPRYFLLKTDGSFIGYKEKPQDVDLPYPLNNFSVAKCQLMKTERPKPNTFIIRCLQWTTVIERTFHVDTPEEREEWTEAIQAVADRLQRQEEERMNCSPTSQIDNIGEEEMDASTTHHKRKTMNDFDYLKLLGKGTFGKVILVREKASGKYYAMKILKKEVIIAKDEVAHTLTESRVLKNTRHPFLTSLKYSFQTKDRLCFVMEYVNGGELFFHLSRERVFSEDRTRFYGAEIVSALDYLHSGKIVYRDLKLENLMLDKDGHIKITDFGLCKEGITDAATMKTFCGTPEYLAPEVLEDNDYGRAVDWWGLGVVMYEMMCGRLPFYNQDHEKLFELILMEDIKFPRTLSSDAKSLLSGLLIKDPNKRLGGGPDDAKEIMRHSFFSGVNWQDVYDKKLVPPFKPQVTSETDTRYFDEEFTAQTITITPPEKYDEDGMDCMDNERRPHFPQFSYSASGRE
As to the kind of experiment: Kinase inhibition assay (33P transfer), AKT. Conditions: Table 2, kinase inhibition class; read-out: AKT3-1. In short, it runs like this:
as §2

The target in a further experiment is T5, EPHB4 (Homo sapiens, UniProt P54760).
T5 construct: Kinases are expressed as either kinase domains or full length constructs; made in house
T5 sequence (P54760 16-987): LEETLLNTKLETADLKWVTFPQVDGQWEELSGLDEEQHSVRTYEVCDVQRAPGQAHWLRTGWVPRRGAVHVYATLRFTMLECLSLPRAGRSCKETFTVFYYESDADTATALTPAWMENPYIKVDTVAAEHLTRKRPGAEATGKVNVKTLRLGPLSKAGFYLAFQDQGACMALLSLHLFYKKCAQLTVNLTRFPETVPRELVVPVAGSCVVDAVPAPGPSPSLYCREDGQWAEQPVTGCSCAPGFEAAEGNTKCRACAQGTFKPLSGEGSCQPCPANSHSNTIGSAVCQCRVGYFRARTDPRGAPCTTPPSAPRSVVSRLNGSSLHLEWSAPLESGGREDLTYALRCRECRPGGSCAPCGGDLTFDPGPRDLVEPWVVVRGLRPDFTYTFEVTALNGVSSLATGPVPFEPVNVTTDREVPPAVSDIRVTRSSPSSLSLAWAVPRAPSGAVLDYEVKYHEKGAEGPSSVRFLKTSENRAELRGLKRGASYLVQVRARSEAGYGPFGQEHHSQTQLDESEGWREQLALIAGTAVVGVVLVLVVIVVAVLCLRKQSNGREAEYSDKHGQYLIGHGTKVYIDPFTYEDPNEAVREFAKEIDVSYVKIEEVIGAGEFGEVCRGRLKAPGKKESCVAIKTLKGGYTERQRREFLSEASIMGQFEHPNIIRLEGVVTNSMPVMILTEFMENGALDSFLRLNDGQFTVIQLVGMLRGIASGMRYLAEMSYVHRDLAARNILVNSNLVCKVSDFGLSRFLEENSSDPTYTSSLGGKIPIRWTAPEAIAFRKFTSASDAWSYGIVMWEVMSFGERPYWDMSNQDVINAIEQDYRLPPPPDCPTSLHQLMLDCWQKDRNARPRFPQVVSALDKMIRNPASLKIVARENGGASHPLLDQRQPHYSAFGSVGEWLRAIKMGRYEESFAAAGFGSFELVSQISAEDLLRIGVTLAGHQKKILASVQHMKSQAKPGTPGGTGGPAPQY
As to the kind of experiment: Kinase inhibition assay (33P transfer), EPHB4. Conditions: read-out: EPHB4-1.

The next experiment concerns the target T6, Hck-1 (Homo sapiens, UniProt P08631).
T6 construct: Kinases are expressed as either kinase domains or full length constructs; made in house
As to the kind of experiment: Kinase inhibition assay (33P transfer), Hck. Conditions: Table 6, Hck-1 kinase inhibition class.

The structures appear in SMILES notation. A value given as a limit tells only on which side of the number the result lay.

T1 sequence (P06241 whole entry, species assumed, the tested form may be a part): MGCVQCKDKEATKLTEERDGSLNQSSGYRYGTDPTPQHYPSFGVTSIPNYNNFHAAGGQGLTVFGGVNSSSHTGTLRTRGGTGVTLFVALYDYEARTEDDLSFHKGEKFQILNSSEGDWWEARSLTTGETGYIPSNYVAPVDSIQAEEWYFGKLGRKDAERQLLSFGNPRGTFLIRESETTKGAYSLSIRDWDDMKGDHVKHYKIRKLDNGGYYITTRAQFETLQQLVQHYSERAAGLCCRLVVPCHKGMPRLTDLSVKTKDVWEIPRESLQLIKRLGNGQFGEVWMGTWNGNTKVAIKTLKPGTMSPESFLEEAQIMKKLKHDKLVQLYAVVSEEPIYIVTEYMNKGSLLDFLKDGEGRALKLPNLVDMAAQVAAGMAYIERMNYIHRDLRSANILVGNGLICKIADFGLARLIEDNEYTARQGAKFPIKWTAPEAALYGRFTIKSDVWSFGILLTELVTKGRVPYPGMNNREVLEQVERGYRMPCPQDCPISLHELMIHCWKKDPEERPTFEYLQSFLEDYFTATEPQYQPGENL
T6 sequence (P08631 whole entry, the tested form may be a part): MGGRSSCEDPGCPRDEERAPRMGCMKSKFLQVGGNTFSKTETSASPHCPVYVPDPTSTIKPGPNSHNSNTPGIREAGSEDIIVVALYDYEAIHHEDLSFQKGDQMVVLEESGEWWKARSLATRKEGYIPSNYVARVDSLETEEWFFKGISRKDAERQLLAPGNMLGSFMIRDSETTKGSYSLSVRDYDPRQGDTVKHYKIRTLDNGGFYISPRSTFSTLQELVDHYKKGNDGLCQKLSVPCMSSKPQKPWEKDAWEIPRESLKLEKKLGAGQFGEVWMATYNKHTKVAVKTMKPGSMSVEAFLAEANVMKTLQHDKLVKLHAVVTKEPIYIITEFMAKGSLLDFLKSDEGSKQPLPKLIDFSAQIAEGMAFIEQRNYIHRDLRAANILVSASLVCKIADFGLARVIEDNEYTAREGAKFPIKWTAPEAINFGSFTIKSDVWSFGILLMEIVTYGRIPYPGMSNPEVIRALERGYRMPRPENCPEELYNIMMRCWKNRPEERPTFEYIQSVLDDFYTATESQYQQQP

In the case of `NC(=O)c1cccc(Nc2ncnc(Nc3cc(-c4ccco4)n[nH]3)n2)c1` [Compound 342], the IC50 on Fyn was 1.1 to 6.62 µM; at Zap-70, more than 12.4 µM; against Flt-1 it was less than 1.1 µM; at AKT, more than 12.4 µM; on EPHB4, 1.1 to 6.62 µM; at Hck-1 it was 6.62 to 9.66 µM.

`COc1cc(Nc2ncnc(N(c3ccccc3)c3nc4ccccc4[nH]3)n2)cc(OC)c1OC` [Compound 335]: the IC50 on Fyn is more than 9.58 µM; at Zap-70 it was more than 9.58 µM; against Flt-1, 0.852 to 5.11 µM; on AKT, more than 9.58 µM; at EPHB4, 0.852 to 5.11 µM; against Hck-1 it was more than 9.58 µM.

On to `COc1ccc(Sc2ncnc(Nc3cc(OC)c(OC)c(OC)c3)n2)cc1` [Compound 175], for which the IC50 at Fyn was 0.999 to 5.99 µM; at Zap-70, more than 11.2 µM; on Flt-1, 5.99 to 8.74 µM; on AKT, more than 11.2 µM; at EPHB4, 0.999 to 5.99 µM; on Hck-1, more than 11.2 µM.

On to `COc1cc(Nc2ncnc(-n3ccc4cc(Cl)ccc43)n2)cc(OC)c1OC` [Compound 198], for which the IC50 at Fyn is more than 10.9 µM; at Zap-70, more than 10.9 µM; against Flt-1, 0.971 to 5.83 µM; at AKT, more than 10.9 µM; on EPHB4 it was more than 10.9 µM; at Hck-1, more than 10.9 µM.

In the case of `COc1cc(Nc2ncnc(-c3ccccc3)n2)cc(OC)c1OC` [Compound 970], the IC50 is 10.3 to 13.3 µM at Fyn; more than 13.3 µM at Zap-70; 7.09 to 10.3 µM at Flt-1; more than 13.3 µM at AKT; more than 13.3 µM on EPHB4; more than 13.3 µM at Hck-1.

As to `COCCOc1ccc(Nc2ncnc(Nc3ccc(C)c(O)c3)n2)cc1OC` [Compound 123], the IC50 at Fyn was 1.01 to 6.04 µM; at Zap-70, more than 11.3 µM; against Flt-1, less than 1.01 µM; at AKT it was more than 11.3 µM; at EPHB4 it was more than 11.3 µM; against Hck-1, 6.04 to 8.81 µM.

As to `COc1cc(Nc2ncnc(Nc3ccc(Cl)cc3F)n2)cc(OC)c1OC` [Compound 306], the IC50 was 0.986 to 5.91 µM at Fyn; more than 11.1 µM at Zap-70; 0.986 to 5.91 µM at Flt-1; more than 11.1 µM on AKT; 0.986 to 5.91 µM on EPHB4; 8.62 to 11.1 µM against Hck-1.

As to `COc1cc(Nc2ncnc(-n3ccc4ccc(Cl)cc43)n2)cc(OC)c1OC` [Compound 237], the IC50 on Fyn is more than 10.9 µM; at Zap-70, 8.5 to 10.9 µM; against Flt-1, 8.5 to 10.9 µM; at AKT it was more than 10.9 µM; at EPHB4 it was 8.5 to 10.9 µM; against Hck-1 it was more than 10.9 µM.

In the case of `COc1cc(Nc2ncnc(Nc3cc(F)ccc3F)n2)cc(OC)c1OC` [Compound 316], the IC50 is 8.99 to 11.6 µM at Fyn; more than 11.6 µM on Zap-70; 8.99 to 11.6 µM at Flt-1; more than 11.6 µM at AKT; 8.99 to 11.6 µM at EPHB4; more than 11.6 µM on Hck-1.

As to `COc1cc(Nc2ncnc(Nc3cc(-c4ccco4)n[nH]3)n2)cc(OC)c1OC` [Compound 308], the IC50 at Fyn is less than 0.977 µM; on Zap-70, more than 11 µM; against Flt-1 it was less than 0.977 µM; on AKT, 8.55 to 11 µM; at EPHB4, less than 0.977 µM; against Hck-1, 0.977 to 5.86 µM.

Turning to `COc1cc(Nc2ncnc(-n3cc(C)c4ccccc43)n2)cc(OC)c1OC` [Compound 323], the IC50 was more than 11.5 µM on Fyn; 8.94 to 11.5 µM at Zap-70; 6.13 to 8.94 µM against Flt-1; more than 11.5 µM on AKT; more than 11.5 µM on EPHB4; more than 11.5 µM on Hck-1.

As for `COc1cc(Nc2ncnc(-n3c(NC(C)=O)nc4ccccc43)n2)cc(OC)c1OC` [Compound 334], the IC50 at Fyn is more than 10.3 µM; at Zap-70, more than 10.3 µM; against Flt-1, 0.919 to 5.51 µM; at AKT, 5.51 to 8.04 µM; at EPHB4 it was 5.51 to 8.04 µM; at Hck-1 it was more than 10.3 µM.

Take `COc1cc2ccn(-c3ncnc(Nc4cc(OC)c(OC)c(OC)c4)n3)c2cc1OC` [Compound 239]: the IC50 on Fyn, on Zap-70, against Flt-1, on AKT, on EPHB4 and against Hck-1 was more than 10.3 µM each time.

Turning to `COc1cc(Nc2ncnc(-n3cnc4ccccc43)n2)cc(OC)c1OC` [Compound 186], the IC50 is more than 11.9 µM at Fyn; more than 11.9 µM on Zap-70; 1.06 to 6.34 µM on Flt-1; more than 11.9 µM on AKT; more than 11.9 µM at EPHB4; more than 11.9 µM against Hck-1.

Turning to `COc1ccc(Nc2ncnc(Nc3ccc(C)c(O)c3)n2)cc1OC` [Compound 119], the IC50 on Fyn was less than 1.13 µM; on Zap-70, more than 12.7 µM; at Flt-1, less than 1.13 µM; at AKT, more than 12.7 µM; at EPHB4, more than 12.7 µM; against Hck-1 it was more than 12.7 µM.

Take `Cc1cccc(Nc2ncnc(Nc3ccc(O)cc3)n2)c1` [Compound 107]: the IC50 on Fyn is less than 1.36 µM; on Zap-70, more than 15.3 µM; against Flt-1, less than 1.36 µM; on AKT it was 1.36 to 8.18 µM; at EPHB4, 1.36 to 8.18 µM; on Hck-1 it was 11.9 to 15.3 µM.

Consider `COc1ccc(Nc2ncnc(-n3c(N)nc4ccccc43)n2)cc1O` [Compound 286], for which the IC50 on Fyn is more than 12.9 µM; at Zap-70, more than 12.9 µM; against Flt-1, less than 1.14 µM; on AKT, 6.87 to 10 µM; on EPHB4 it was 6.87 to 10 µM; at Hck-1, more than 12.9 µM.

Turning to `COc1cc(Nc2ncnc(Nc3nnc(-c4ccccc4)[nH]3)n2)cc(OC)c1OC` [Compound 311], the IC50 on Fyn, at Zap-70, against Flt-1, at AKT, on EPHB4 and at Hck-1 was more than 10.7 µM each time.

Consider `COc1ccc(Nc2ncnc(N(CC(=O)O)c3ccc4c(c3)OCO4)n2)cc1OC` [Compound 320], for which the IC50 at Fyn was more than 10.6 µM; on Zap-70, 8.23 to 10.6 µM; against Flt-1, more than 10.6 µM; at AKT it was more than 10.6 µM; at EPHB4, more than 10.6 µM; on Hck-1 it was more than 10.6 µM.

`COc1cc(Nc2ncnc(Nc3ccc(C)c(F)c3)n2)cc(OC)c1OC` [Compound 300]: the IC50 at Fyn was 1.04 to 6.23 µM; on Zap-70, more than 11.7 µM; on Flt-1, more than 11.7 µM; on AKT it was more than 11.7 µM; on EPHB4 it was 1.04 to 6.23 µM; at Hck-1, more than 11.7 µM.

Take `COc1cc(Nc2ncnc(Nc3ccc(C)cc3F)n2)cc(OC)c1OC` [Compound 937]: the IC50 on Fyn is 1.04 to 6.23 µM; on Zap-70, more than 11.7 µM; at Flt-1, 9.08 to 11.7 µM; on AKT, more than 11.7 µM; at EPHB4, 1.04 to 6.23 µM; against Hck-1, more than 11.7 µM.
